Experimental data as given in patent publication US7763626B2, “Compositions and method for enhancing the therapeutic activity of opiods in treatment of pain” (Trustees of Dartmouth College, priority 2004, dated 2010).

Experiments:
Mac-1 mRNA = assay: Real-time PCR of Mac-1 mRNA at L5 lumbar spinal cord; assay type: in vivo, rat
Protocol: Total RNA was treated with DNase I (Ambion, Austin, Tex.) to remove DNA contamination before cDNA synthesis. The reverse transcription (RT) was carried out in a 100 μl total reaction volume containing RT buffer, dNTPs, multiscribe reverse transcriptase, RNase-free water and 10 μg of DNase-treated total RNA. The RT reaction was carried out at 25° C. for 10 minutes, 37° C. for 120 minutes, and 95° C. for 5 minutes. Real-time PCR analysis was performed using gene-specific primers and probes that were designed and blasted against GENBANK to confirm their species and gene specificity. […] The real-time PCR reactions were carried out using Platinum Taq DNA polymerase, 20 mM Tris HCl (pH 8.4), 50 mM KCl, 3 mM MgCl2, 200 μM dGTP, dCTP, and dATP, 400 μM of dUTP and 1 U uracyl DNA glycosylase (UDG), 900 nM forward and reverse primers, 300 nM TaqMan probe, and 10-fold dilution of cDNA (50 ng) from the RT step. Primers and probes for glyceraldehyde-3-phosphate (GADPH), GFAP and Mac-1 were obtained form Applied Biosystems (LaJolla, Calif.). The relative standard curves generated by plotting the threshold value versus the log of the amount of total cDNA added to the reaction (1-10000 pg) were used to compare the relative amount of target genes from control and chronic morphine-treated animals.

GLT-1 = assay: Immunohistochemical assessment of glutamate transporters in spinal cord; assay type: in vivo, rat; details: twelve days after L5 spinal nerve transection; propentofylline 10 μg i.t. daily
Protocol: (§1) Experiments were performed to determine how propentofylline-induced suppression of glial activation contribute to reduced behavioral hypersensitivity after nerve injury. In a preventative paradigm, 10 μg of propentofylline (Sigma) to male Sprague-Dawley rats in 40 μl of sterile saline, or saline vehicle alone was administered intrathecally (i.t.) by lumbar puncture at the L4/5 level under brief halothane anesthesia (n=6-8/group). Treatment began one hour prior to L5 spinal nerve transection and continued daily in the evening until day 4 or 12 post-transection. Rats received either an L5 spinal nerve transection or sham surgery on day 0. The development of mechanical allodynia was monitored as described above in the morning at approximately 15 hours post-propentofylline or saline injection. […]
(§2) For assessment of GFAP, GLT-1 and GLAST immunoreactivity, a separate group of animals (n=4/treatment) were anesthetized and transcardially perfused with 0.1 M PBS (phosphate-buffered saline), pH 7.4, followed by 4% paraformaldehyde in PBS on day 12 post-L5 spinal nerve transection. […] The sections were examined with an Olympus fluorescence microscope, and images were captured with a Q-Fire cooled camera. […]

GLAST = assay: as above; assay type: in vivo, rat; details: day 12 after L5 spinal nerve transection; propentofylline 10 μg i.t. daily
Protocol: as §1, §2

TNF-α mRNA = assay: RNase protection assay, cytokine mRNA at L5 lumbar spinal cord; details: propentofylline 10 micrograms intrathecally for 5 days during induction of morphine tolerance
Protocol: After behavioral testing for reactions to the combined treatment, rats were sacrificed and decapitated. An 18-gauge needle was inserted into the caudal end of the vertebral column and the spinal cord was expelled with ice-cold phosphate-buffered saline. The spinal cord was frozen immediately on dry ice and stored at −80° C. until homogenization. The L5 lumbar spinal cord was isolated from the intact frozen cord at the time of mRNA and protein quantification. Total RNA was isolated from the L5 spinal cord by the TRIzol extraction method (Invitrogen Corporation, Carlsbad, Calif).
Assessment of the temporal cytokine mRNA expression in the L5 lumber spinal cord was performed using a Ribonuclease Protection Assay technique. A Multiprobe RPAse kit was used (Pharmingen, San Diego, Calif.). […] Quantitative image analysis was employed to compare mRNA levels based on band intensities for each cytokine. The intensity of each band was measured using image analysis software and assigned an arbitrary unit based on the measured intensity levels. The value for the normalized quantity for each band was obtained by dividing by the L32 house-keeping gene control. Individual mRNA concentration was calculated as the ratio of the expression compared with saline-treated animals in which normal values were weighted as 1.

GLT-1 mRNA = assay: Real time RT-PCR of ipsilateral lumbar spinal cord after L5 spinal nerve transection; assay type: in vivo, rat; details: daily intrathecal propentofylline 10 μg
Protocol: (§3) Experiments were performed to determine how propentofylline-induced suppression of glial activation contribute to reduced behavioral hypersensitivity after nerve injury. In a preventative paradigm, 10 μg of propentofylline (Sigma) to male Sprague-Dawley rats in 40 μl of sterile saline, or saline vehicle alone was administered intrathecally (i.t.) by lumbar puncture at the L4/5 level under brief halothane anesthesia (n=6-8/group). Treatment began one hour prior to L5 spinal nerve transection and continued daily in the evening until day 4 or 12 post-transection. Rats received either an L5 spinal nerve transection or sham surgery on day 0. The development of mechanical allodynia was monitored as described above in the morning at approximately 15 hours post-propentofylline or saline injection. Rats were euthanized on day 4 or 12 post-transection and tissue was further processed by real time RT-PCR, Western blot, or immunohistochemistry for determination of levels and rate of synthesis of the glutamate transporters GLT-1 and GLAST.
(§4) Tissue was collected from 4-5 rats/group on postoperative days 4 or 12. In order to obtain both mRNA and protein from the same tissue sample, the L5 region of the spinal cord (ipsilateral to the injury), was isolated and placed in PBS supplemented with protease inhibitor cocktail (1:1000, Sigma, St. Louis, Mo.) and RNase inhibitor (0.75 U/μL Ambion, Austin, Tex.). […]
(§5) Real time RT-PCR reactions were carried out in a total reaction volume of 25 uL containing a final concentration of 1.5 U Platinum Taq DNA polymerase (Invitrogen); 20 mM Tris HCl (pH 8.4); 50 mM KCl; 3 mM MgCl2; 200 uM dGTP, dCTP, and dATP; 400 uM dUTP and 1 U of UDG (uracyl DNA glycosylase); 900 nM of forward and reverse primers; 300 nM Taqman probe; and 5 uL of a 10-fold dilution of cDNA (50 ng) from the RT step. […] The iCycler Multicolor Real-Time PCR detection system (Bio-Rad) was used to quantify PCR product. The fluorescence and threshold values obtained were used to compare the relative amount of target mRNA in experimental groups to those of controls (Livak and Schmittgen 2001). […]

GLAST mRNA = assay: as above; assay type: in vivo, rat; details: day 4; compared to L5 spinal nerve transection alone; did not attain statistical significance
Protocol: as §3, §4, §5

CCCn1cnc2c1c(=O)n(CCCCC(C)=O)c(=O)n2C [propentofylline] was tested, and the “Mac-1 mRNA levels at the L5 lumbar spinal cord” value (Mac-1 mRNA; compared to saline-treated controls, morphine 10 mg/kg twice daily 5 days, or propentofylline 10 micrograms intrathecally 5 days in saline-treated rats) was “no effect”, the “chronic morphine-induced upregulation of Mac-1” value (Mac-1 mRNA; propentofylline during the induction phase of morphine tolerance) was “significantly attenuated” and the “GLT-1 immunoreactivity, ipsilateral versus contralateral dorsal horns” value (GLT-1) was “no qualitative difference”. The “GLAST immunoreactivity on the ipsilateral side” value (GLAST) was “did not enhance”, the “morphine-induced mRNA upregulation for TNF-α” value (TNF-α mRNA) was “significantly attenuated” and the “GLT-1 mRNA level” value (GLT-1 mRNA; day 4 post-transection, vs sham-operated and L5 nerve transected rats) was “significantly increased”. The “GLT-1 mRNA level” value (GLT-1 mRNA; day 12 post-transection, vs L5 nerve transected rats) was “significantly increased” and the “GLAST mRNA level” value (GLAST mRNA) was “slight decrease”.
